This note sets out measurements from patent US20100285959A1, “HERBICIDAL MIXTURES” (priority 2006, published 2010).

The test system of one assay is goosegrass (ELEIN). In words: Test 11 field trial, preemergence. The format is in vivo, Eleusine indica. An excerpt: (§1) Corn seeds (hybrid ‘Pioneer 3041’) were planted in mid spring season, 5 cm deep in a clay soil having 2.6% organic matter and a pH of 5.6. Plots were 8 m long by 1.5 m wide with rows spaced 80 cm apart. Seeds were spaced 15 cm apart within the rows. The field was managed using conventional tillage practices. […] Treatments consisted of Compound 2 or
(§2) Goosegrass was not evaluated 16 or 91 days after application.

The next assay has as its system alexandergrass (BRAPL). In words: Test 11 field trial, preemergence. It is filed as in vivo, Brachiaria plantaginea. The arrangement: scale not given here. Particulars: alone or + atrazine 1500 or metolachlor 2500.
From the text: as §1, §2

Assay [1] relates to tropical spiderwort (COMBE). In words: Test 11 field trial, preemergence. The following applies: alone or + atrazine 1500 or metolachlor 2500. Further details: scale not given here. It is filed as in vivo, Commelina benghalensis.
From the text: as §1, §2

The test system of assay [2] is Brazilian crabgrass (DIGHO). As to the kind of experiment: Test 11 field trial, preemergence. The arrangement: scale not given here. The format is in vivo, Digitaria horizontalis. Particulars: alone or + atrazine 1500 or metolachlor 2500.
From the text: as §1, §2

For assay [3], the system named is redroot pigweed (AMARE). In words: Test 1 field trial, preemergence. The format is in vivo, Amaranthus retroflexus. Particulars: g a.i./ha: Atrazine 1680, S-Metolachlor 1870. From the text:
(§3) Corn seeds (hybrid ‘Pioneer 34N43’) were planted in mid spring season, 3.8 cm deep in a silt loam soil having 4.6% organic matter and a pH of 6. Plots were 10.7 m long by 1.5 m wide with rows spaced 76 cm apart. Seeds were spaced 18 cm apart within the rows. The field was managed using conventional tillage practices. […] Results are summarized in Table 1 and are the means of the three replicates. […] Colby's Equation (Colby, S. R. “Calculating Synergistic and Antagonistic Responses of Herbicide Combinations,” Weeds, 15(1), pp 20-22 (1967)) calculates the expected additive effect of herbicidal mixtures, and for two active ingredients is of the form:
(§4) Pa+b=Pa+Pb−(PaPb/100) • wherein Pa+b is the percentage effect of the mixture expected from additive contribution of the individual components, • Pa is the observed percentage effect of the first active ingredient at the same use rate as in the mixture, and • Pb is the observed percentage effect of the second active ingredient at the same use rate as in the mixture.

Assay [4] has as its system common lambsquarters (CHEAL). In words: Test 1 field trial, preemergence. It is filed as in vivo, Chenopodium album. The following applies: g a.i./ha: Atrazine 1680, S-Metolachlor 1870.
From the text: as §3, §4

Assay [5] concerns redroot pigweed (AMARE). As to the kind of experiment: Test 8 field trial, preemergence. It is filed as in vivo, Amaranthus retroflexus. The following applies: 56 DAA; g a.i./ha: Cpd 2 100, Atrazine 1680, S-Metolachlor 1870. An excerpt:
Corn seeds (hybrid ‘Pioneer 31G96’) were planted in mid spring season, 3.8 cm deep in a clay loam soil having 2% organic matter and a pH of 6.6. Plots were 6.1 m long by 3.0 m wide with rows spaced 76 cm apart. Seeds were spaced 15 cm apart within the rows. The field was managed using conventional tillage practices. […] A few of the weed species could not be evaluated at every timing. […] Results are the means of the three replicates.

Assay [6] has as its system ivyleaf morningglory (IPOHE). In words: Test 10 field trial, preemergence. The format is in vivo, Ipomoea hederacea. The following applies: 28 DAA; g a.i./ha: Cpd 2 100, Atrazine 1680, S-Metolachlor 1870. From the text:
Corn seeds (hybrid ‘Pioneer 33P65 RR’) were planted in mid spring season, 2.5 cm deep in a silt loam soil. Plots were 9.1 m long by 3.0 m wide with rows spaced 76 cm apart. The field was managed using conventional tillage practices. […] Results are the means of the three replicates.

A further assay relates to field pennycress (THLAR). In words: Test 5 field trial, postemergence. The following applies: atrazine 1120, glufosinate 470 or glyphosate 1120 g a.i./ha alone. The format is in vivo, Thlaspi arvense. An excerpt: (§5) Corn seeds (hybrid ‘Pioneer 38H69’) were planted in mid spring season, 5.1 cm deep in a silty clay loam soil having 3% organic matter and a pH of 6.5. Plots were 9.1 m long by 3.0 m wide with rows spaced 76 cm apart. The field was managed using conventional tillage practices. […] All treatments included a surfactant except glufosinate treatments, both alone and in combination. […] Results are summarized in Table 5 and are the means of the three replicates.

The test system of assay [7] is common lambsquarters (CHEAL). As to the kind of experiment: Test 6 field trial, postemergence. The format is in vivo, Chenopodium album. The following applies: 1120 g a.i./ha. From the text: (§6) Corn seeds (hybrid ‘Pioneer 35Y62’) were planted in mid spring season, 3.8 cm deep in a silt loam soil having 4% organic matter and a pH of 5.8. Plots were 10.7 m long by 1.5 m wide with rows spaced 76 cm apart. Seeds were spaced 18 cm apart within the rows. The field was managed using conventional tillage practices. […] All treatments included a surfactant except glufosinate treatments, both alone and in combination. […] Results are summarized in Table 6 and are the means of the three replicates.

In the next assay the test system is velvetleaf (ABUTH). As to the kind of experiment: Test 6 field trial, postemergence. The following applies: 1120 g a.i./ha. The format is in vivo, Abutilon theophrasti.
From the text: as §6

The next assay has as its system shepherd's purse (CAPBP). In words: Test 5 field trial, postemergence. It is filed as in vivo, Capsella bursa-pastoris. The following applies: atrazine 1120, glufosinate 470 or glyphosate 1120 g a.i./ha alone.
From the text: as §5

A further assay concerns yellow foxtail (SETLU). In words: Test 5 field trial, postemergence. The format is in vivo, Setaria glauca. The following applies: atrazine 1120, glufosinate 470 or glyphosate 1120 g a.i./ha alone.
From the text: as §5

Where [8] appears, read: 16 DAA, Cpd 2/Cpd 1 at 62 g a.i./ha.
Where [9] appears, read: 16 DAA, Cpd 2/Cpd 1 at 125 g a.i./ha.
[10] abbreviates: 30 DAA, Cpd 2/Cpd 1 at 62 g a.i./ha.
The mark [11] stands for this setting: 30 DAA, Cpd 2/Cpd 1 at 125 g a.i./ha.
The mark [12] stands for this setting: 44 DAA, Cpd 2/Cpd 1 at 62 g a.i./ha.
[13] abbreviates: 44 DAA, Cpd 2/Cpd 1 at 125 g a.i./ha.
Where [14] appears, read: 62 DAA, Cpd 2/Cpd 1 at 62 g a.i./ha.
Setting [15] is: 62 DAA, Cpd 2/Cpd 1 at 125 g a.i./ha.
[16] abbreviates: 91 DAA, Cpd 2/Cpd 1 at 62 g a.i./ha.
The mark [17] stands for this setting: 91 DAA, Cpd 2/Cpd 1 at 125 g a.i./ha.

Turning to `Nc1nc(C2CC2)nc(C(=O)O)c1Cl` [Compound 1, 6-amino-5-chloro-2-cyclopropyl-4-pyrimidinecarboxylic acid], the “ELEIN Obs” value was 0 in the assay on goosegrass (ELEIN) (30 DAA, Cpd 2/Cpd 1 at 62 g a.i./ha, alone or + atrazine 1500 or metolachlor 2500); 20 in the assay with goosegrass (ELEIN) (30 DAA, Cpd 2/Cpd 1 at 125 g a.i./ha, alone or + atrazine 1500 or metolachlor 2500); 0 in the assay on goosegrass (ELEIN) (44 DAA, 62 g a.i./ha, scale 0 to 100); 0 with goosegrass (ELEIN) (44 DAA, 125 g a.i./ha, scale 0 to 100); 0 in the assay with goosegrass (ELEIN) (62 DAA, 62 g a.i./ha, scale 0 to 100); 0 in the assay with goosegrass (ELEIN) (62 DAA, 125 g a.i./ha, scale 0 to 100). The “BRAPL Obs” value is 40 in the assay on alexandergrass (BRAPL) (setting [8]); 40 in the assay with alexandergrass (BRAPL) (setting [9]); 20 with alexandergrass (BRAPL) (setting [10]); 60 with alexandergrass (BRAPL) (setting [11]); 0 in the assay with alexandergrass (BRAPL) (setting [12]); 40 with alexandergrass (BRAPL) (setting [13]). For the same compound, the “BRAPL Obs” value with alexandergrass (BRAPL) (setting [14]), in the assay on alexandergrass (BRAPL) (setting [15]), in the assay on alexandergrass (BRAPL) (setting [16]) and in the assay with alexandergrass (BRAPL) (setting [17]) was 0 throughout. Further, the “COMBE Obs” value in assay [1] (setting [8]) stood at 40; in [1] (setting [9]) it was 60; in [1] (setting [10]) it was 60; in [1] (setting [11]), 95; in assay [1] (setting [12]), 60; in assay [1] (setting [13]), 95. For the same compound, the “COMBE Obs” value in assay [1] (setting [14]) is on record as 40; in [1] (setting [15]), 60; in [1] (setting [16]), 0; in assay [1] (setting [17]) it was 70. Moreover, the “DIGHO Obs” value in assay [2] (setting [8]) worked out at 0; in assay [2] (setting [9]), 0; in assay [2] (setting [10]), 0; in assay [2] (setting [11]), 20; in [2] (setting [12]), 0; in assay [2] (setting [13]), 20. Also, the “DIGHO Obs” value in assay [2] (setting [14]), in [2] (setting [15]), in assay [2] (setting [16]) and in assay [2] (setting [17]) was 0 throughout.
In the case of `CCc1cccc(C)c1N(C(=O)CCl)[C@@H](C)COC` [S-Metolachlor, S-metolachlor, reference compound], the “AMARE Obs” value was determined as 100 in the assay with redroot pigweed (AMARE) [3] (28 DAA), 80 with redroot pigweed (AMARE) [3] (56 DAA) and 100% in the assay with redroot pigweed (AMARE) [5]. Moreover, the “CHEAL Obs” value in assay [4] (28 DAA) is listed as 95; in [4] (56 DAA) it was 23. Besides, the “IPOHE Obs” value in assay [6] is 23%.
With `O=C(O)CNCP(=O)(O)O` [Glyphosate], the “THLAR Obs” value in the assay on field pennycress (THLAR) (16 DAA) is listed as 98%; in the assay with field pennycress (THLAR) (31 DAA) it was 100%. The “CHEAL Obs” value in assay [7] (14 DAA) and in assay [7] (28 DAA) was 100% each time. In addition, the “ABUTH Obs” value amounted to 99% in the assay on velvetleaf (ABUTH) (14 DAA) and 100% in the assay with velvetleaf (ABUTH) (28 DAA). Further, the “CAPBP Obs” value in the assay on shepherd's purse (CAPBP) (16 DAA) amounted to 98%; with shepherd's purse (CAPBP) (31 DAA), 100%. Further, the “SETLU Obs” value in the assay with yellow foxtail (SETLU) (16 DAA) is 100%; in the assay with yellow foxtail (SETLU) (31 DAA), 98%.
